These results are taken from patent US11985994B2, “Sweetener and flavor compositions, methods of making and methods of use thereof” (EPC Natural Products Co., Ltd., priority 2018, dated 2024).

The nature of this data set: Sensory evaluation (smell, color, taste) of Maillard reaction samples, Examples 52, 55-63. Also on record: species or system human. The procedure: For evaluation of the taste profile, the samples were tested by a panel of four people. 1 trained taster tasted independently the samples first. The taster was asked to describe the taste profile and score 0-5 according to the increasing sugar likeness, bitterness, aftertaste and lingering taste profiles. The first taster was allowed to re-taste, and then make notes for the sensory attributes perceived. Afterwards, another 3 tasters tasted and the attributes were noted and discussed openly to find a suitable description. In case that more than 1 taster disagreed with the results, the tasting was repeated. In some sensory test results (above), the taste rating was expressed by “+”, which means the intensity of the factors is shown by three levels. “+” for slight, “++” for moderate and “+++” for very strong.
All samples were assessed at 22° C. after the Maillard reaction was stopped by placing the sealed vials in an ice bath. After 20 minutes in the ice bath the sealed vials were put in a water bath set to 22° C.
The odor/smell was assessed independently by 3 persons; the final description was agreed after discussion. […] The taste was assessed independently by 3 persons either in the original samples or after appropriate dilution to achieve relevant concentrations of sugars and steviol-glycosides (i.e. 5-9% SE); the final description was agreed after discussion.

Where [1] appears, read: Table 52.2: 1 ml water + 9 ml Glycerin, 0.67 h, 100 °C.
[2] abbreviates: 1 ml water + 9 ml Glycerin, 2.0 h, 120 °C.
Setting [3] is: Table 52.3: 1 ml water + 9 ml Glycerin, 0.67 h, 100 °C.
The mark [4] stands for this setting: negative controls (no carbohydrate source), 10 ml glycerin/water, 100 °C, 40 minutes.

As to `C[C@H](N)C(=O)O` [0.1 mMol Ala, Alanine], the Color entry under setting [1] is “No Color”.

For the molecule `O=C[C@H](O)[C@@H](O)[C@H](O)[C@H](O)C(=O)O` [0.1 mMol Gluc Acid, Glucuronic Acid], under setting [2], the Color result is “Almost black”, the “Intensity of Smell” value is “+++”, the Smell entry is “burnt bread” and the Taste result was “Bitter”.

In the case of `O=C[C@H](O)[C@H]1OC(=O)[C@@H](O)[C@H]1O` [0.1 mMol GlucLac, Glucuronolactone], under setting [2], the Color entry is listed as “Almost black”, the “Intensity of Smell” value is recorded as “+++”, the Smell result is listed as “Burnt sugar” and the Taste result is on record as “Bitter”.

Take `NCCCC[C@H](N)C(=O)O` [0.1 mMol Lys, Lysine]: under setting [3], the Color result was “Brown”, the Smell result is “Popcorn” and the Taste result is “Sweet”.

On to `N[C@@H](Cc1ccccc1)C(=O)O` [0.1 mMol Phe, Phenylalanine], for which, under setting [2], the Color entry is “Slightly Yellow”; the “Intensity of Smell” value is reported as “+”; the Smell result is “Caramel, burnt”; the Taste entry is given as “sweet”. Moreover, under setting [1], the Color entry is on record as “Slightly Yellow”, the Smell result was “flowery/bloomy,” and the Taste entry is reported as “sweet”.

As to `C=C1C[C@@]23CC[C@H]4[C@@](C)(CCC[C@@]4(C)C(=O)O[C@@H]4O[C@H](CO)[C@@H](O)[C@H](O)[C@H]4O)[C@@H]2CC[C@]1(O[C@@H]1O[C@H](CO)[C@@H](O)[C@H](O[C@@H]2O[C@H](CO)[C@@H](O)[C@H](O)[C@H]2O)[C@H]1O[C@@H]1O[C@H](CO)[C@@H](O)[C@H](O)[C@H]1O)C3` [0.05 mMol Reb-A, Rebaudioside A], the Color result under setting [1] is “Slightly Yellow”.

Consider `N[C@@H](Cc1ccccc1)C(=O)O` [3.3 mMol Phe, Phenylalanine], for which the Color result is “No color” (Glycerin 10 ml, 100 °C, 5 min); “No color” (Glycerin 10 ml, 100 °C, 10 min); “Slightly Yellow” (Glycerin 10 ml, 100 °C, 20 min); “Yellow-slightly” (Glycerin 10 ml, 100 °C, 40 min); “Brown” (Glycerin 10 ml, 1 h, 120 °C). Besides, the Smell entry is recorded as “Slightly bloomy” (Glycerin 10 ml, 100 °C, 5 min); “flowery/bloomy” (Glycerin 10 ml, 100 °C, 10 min); “flowery/bloomy” (Glycerin 10 ml, 100 °C, 20 min); “flowery/bloomy” (Glycerin 10 ml, 100 °C, 40 min); “flowery/bloomy” (Glycerin 10 ml, 1 h, 120 °C).

Turning to `C[C@H](N)C(=O)O` [8.91 mg Ala, Alanine], under setting [4], the Color result was “No color”; the Smell result is given as “Neutral, slightly Agar”; the Taste entry was “Slightly sweet”.

As to `O=C[C@H](O)[C@@H](O)[C@H](O)CO` [10 mmol Xyl, Xylose], under “Glycerin 10 ml, 100 °C, 40 min”, the Color entry is given as “Slightly Yellow” and the Smell result is “Slightly Popcorn”. In addition, under “Glycerin 10 ml, 1 h, 120 °C”, the Color entry was “No color” and the Smell entry is recorded as “neutral”.

For the molecule `N[C@@H](CO)C(=O)O` [10.5 mg Ser, Serine], under setting [4], the Color entry is listed as “Slightly Yellow”, the Smell result is “Lotus flower” and the Taste entry is on record as “Slightly sweet”.

Turning to `O=C(O)[C@@H]1CCCN1` [11.5 mg Pro, Proline], under setting [4], the Color entry is recorded as “Slightly Yellow”; the Smell result is “Neutral, slightly”; the Taste result is recorded as “Slightly sweet”.

Take `C[C@@H](O)[C@H](N)C(=O)O` [11.91 mg Thr, Threonine]: under setting [4], the Color result is reported as “Very Slightly”; the Smell entry is reported as “Vanilla, butter”; the Taste entry was “Slightly sweet”.

Consider `N[C@@H](CS)C(=O)O` [12.1 mg Cys, Cysteine], for which, under setting [4], the Color entry is recorded as “Slightly Yellow”, the Smell entry is “Unpleasant (sulfur)” and the Taste entry is “Slightly sweet”.

In the case of `CC[C@H](C)[C@H](N)C(=O)O` [13.11 mg Ile, Isoleucine], under setting [4], the Color result was “No color”, the Smell result is listed as “Coffee” and the Taste entry is “Slightly sweet”.

For `NCCCC[C@H](N)C(=O)O` [14.7 mg Lys, Lysine], under setting [4], the Color entry was “brown”, the Smell entry is “Popcorn” and the Taste result is listed as “Slightly sweet”.
